We go through one compound from ChEMBL document CHEMBL1148993, “UV-mediated genotoxicity of furanoquinoline and of certain tryptophan-derived alkaloids” (J Nat Prod, 1983).

Data set [1] concerns Pseudomonas aeruginosa. Kind of data set: Phototoxicity against Pseudomonas aeruginosa at 16.7 ug/disk after irradiation with W/m'2 UV light. The class given is functional. The settings on record: light or radiation study, read-out: IZ.
The subject of data set [2] is Bacillus subtilis. Kind of data set: Phototoxicity against Bacillus subtilis at 16.7 ug/disk in dark. The conditions noted are these: light or radiation study, read-out: IZ. Type of data set: functional.
Data set [3] deals with Staphylococcus aureus. Kind of data set: Phototoxicity against Staphylococcus aureus at 16.7 ug/disk after irradiation with W/m'2 UV light. Type of data set: functional. The settings on record: light or radiation study, read-out: IZ.
The subject of data set [4] is Escherichia coli. Description: Phototoxicity against Escherichia coli at 16.7 ug/disk after irradiation with W/m'2 UV light. The class given is functional. The conditions noted are these: light or radiation study, read-out: IZ.
Data set [5] relates to Escherichia coli. Kind of data set: Phototoxicity against Escherichia coli at 16.7 ug/disk in dark. Type of data set: functional. The settings on record: light or radiation study, read-out: IZ.
Data set [6] relates to Candida albicans. Description: Phototoxicity against Candida albicans at 16.7 ug/disk in dark. The class given is functional. The conditions noted are these: light or radiation study, read-out: IZ.
In data set [7] the test system is Staphylococcus aureus. Description: Phototoxicity against Staphylococcus aureus at 16.7 ug/disk in dark. Type of data set: functional. The conditions noted are these: light or radiation study, read-out: IZ.
Data set [8] concerns Pseudomonas fluorescens. Kind of data set: Phototoxicity against Pseudomonas fluorescens at 16.7 ug/disk after irradiation with W/m'2 UV light. Type of data set: functional. The conditions noted are these: light or radiation study, read-out: IZ.
In data set [9] the test system is Pseudomonas aeruginosa. Description: Phototoxicity against Pseudomonas aeruginosa at 16.7 ug/disk in dark. The class given is functional. The conditions noted are these: light or radiation study, read-out: IZ.
For data set [10], the system named is CHO. Kind of data set: Genotoxicity in CHO cells assessed as chromosomal aberrations at 20.8 ppm after 60 mins in dark followed by 5 W/m'2 UV irradiation for 30 mins. The class given is toxicity, cell-based, Cricetulus griseus. The conditions noted are these: chinese hamster, 0.5 h.
The test system of data set [11] is CHO. Kind of data set: Genotoxicity in CHO cells assessed as chromosomal aberrations at 83.5 ppm after 60 mins in dark followed by 5 W/m'2 UV irradiation for 30 mins. Type of data set: toxicity, cell-based, Cricetulus griseus. The settings on record: chinese hamster, 0.5 h.
Data set [12] deals with Enterococcus faecalis. Description: Phototoxicity against Streptococcus faecalis at 16.7 ug/disk after irradiation with W/m'2 UV light. The conditions noted are these: light or radiation study, read-out: IZ. The class given is functional.
Data set [13] concerns Saccharomyces cerevisiae. Kind of data set: Phototoxicity against Saccharomyces cerevisiae at 16.7 ug/disk in dark. Type of data set: functional. The settings on record: light or radiation study, read-out: IZ.
Data set [14] has as its system CHO. Description: Genotoxicity in CHO cells assessed as chromosomal aberrations at 83.5 ppm after 90 mins in dark. The class given is toxicity, cell-based, Cricetulus griseus. The conditions noted are these: chinese hamster, 1.5 h.
In data set [15] the test system is CHO. Kind of data set: Genotoxicity in CHO cells assessed as chromosomal aberrations at 5.2 ppm after 60 mins in dark followed by 5 W/m'2 UV irradiation for 30 mins. The conditions noted are these: chinese hamster, 0.5 h. The class given is toxicity, cell-based, Cricetulus griseus.
The subject of data set [16] is Enterococcus faecalis. Kind of data set: Phototoxicity against Streptococcus faecalis at 16.7 ug/disk in dark. The class given is functional. The settings on record: light or radiation study, read-out: IZ.
The subject of data set [17] is CHO. Kind of data set: Genotoxicity in CHO cells assessed as mitotic inhibition at 2.6 ppm after 60 mins in dark followed by 5 W/m'2 UV irradiation for 30 mins. The class given is toxicity, cell-based, Cricetulus griseus. The conditions noted are these: chinese hamster, 0.5 h.
The subject of data set [18] is Bacillus subtilis. Kind of data set: Phototoxicity against Bacillus subtilis at 16.7 ug/disk after irradiation with W/m'2 UV light. The settings on record: light or radiation study, read-out: IZ. The class given is functional.
Data set [19] concerns Candida albicans. Description: Phototoxicity against Candida albicans at 16.7 ug/disk after irradiation with W/m'2 UV light. The class given is functional. The settings on record: light or radiation study, read-out: IZ.
Data set [20] has as its system Saccharomyces cerevisiae. Description: Phototoxicity against Saccharomyces cerevisiae at 16.7 ug/disk after irradiation with W/m'2 UV light. The conditions noted are these: light or radiation study, read-out: IZ. The class given is functional.
Data set [21] has as its system CHO. Description: Genotoxicity in CHO cells assessed as chromosomal aberrations at 10.4 ppm after 60 mins in dark followed by 5 W/m'2 UV irradiation for 30 mins. Type of data set: toxicity, cell-based, Cricetulus griseus. The settings on record: chinese hamster, 0.5 h.
Data set [22] concerns CHO. Description: Genotoxicity in CHO cells assessed as chromosomal aberrations at 41.7 ppm after 60 mins in dark followed by 5 W/m'2 UV irradiation for 30 mins. The class given is toxicity, cell-based, Cricetulus griseus. The settings on record: chinese hamster, 0.5 h.
Data set [23] has as its system Pseudomonas fluorescens. Description: Phototoxicity against Pseudomonas fluorescens at 16.7 ug/disk in dark. The class given is functional. The settings on record: light or radiation study, read-out: IZ.

For the compound `COc1cc2nccc3c4ccccc4n(c1=O)c23` [5-METHOXYCANTHINONE], the zone of inhibition at 16.7 µg/disc in [1] came out at 0 mm; in data set [2], 8 mm; in [3], 8 mm; in [4], 7 mm; in [5], 0 mm; in [6] it was 0 mm. Also, the zone of inhibition at 16.7 µg/disc in data set [7], in [8], in data set [9], in data set [12], in data set [13] and in data set [16] was 0 mm in each case. The zone of inhibition at 16.7 µg/disc in data set [18] was 8 mm; in [19], 12 mm; in [20], 6 mm; in data set [23] it was 0 mm. For the same compound, the Activity entry was “Toxic” in data set [10]; “Toxic” in data set [11]; 0% in [14]; “Toxic” in [15]; “Active” in data set [17]; “Toxic” in data set [21]. Besides, the Activity entry in [22] is recorded as “Toxic”.
